From publication PMC12087874, “Biaryl Phosphates and Phosphonates as Selective Inhibitors of the Transcription Factor STAT4” (Angewandte Chemie (International Ed. in English), 2025)
Substitutions are numbered along the chain they refer to.

Experiments:
Assay type in all cases: binding
STAT4 Lys580Ala = biological target: T1, STAT4 Lys580Ala (Homo sapiens, UniProt Q14765, K580A); assay: Isothermal titration calorimetry (ITC), STAT4 Lys580Ala; settings: n = 4
T1 construct: 6xHis; made in house
T1 sequence (Q14765 1-748 K580A): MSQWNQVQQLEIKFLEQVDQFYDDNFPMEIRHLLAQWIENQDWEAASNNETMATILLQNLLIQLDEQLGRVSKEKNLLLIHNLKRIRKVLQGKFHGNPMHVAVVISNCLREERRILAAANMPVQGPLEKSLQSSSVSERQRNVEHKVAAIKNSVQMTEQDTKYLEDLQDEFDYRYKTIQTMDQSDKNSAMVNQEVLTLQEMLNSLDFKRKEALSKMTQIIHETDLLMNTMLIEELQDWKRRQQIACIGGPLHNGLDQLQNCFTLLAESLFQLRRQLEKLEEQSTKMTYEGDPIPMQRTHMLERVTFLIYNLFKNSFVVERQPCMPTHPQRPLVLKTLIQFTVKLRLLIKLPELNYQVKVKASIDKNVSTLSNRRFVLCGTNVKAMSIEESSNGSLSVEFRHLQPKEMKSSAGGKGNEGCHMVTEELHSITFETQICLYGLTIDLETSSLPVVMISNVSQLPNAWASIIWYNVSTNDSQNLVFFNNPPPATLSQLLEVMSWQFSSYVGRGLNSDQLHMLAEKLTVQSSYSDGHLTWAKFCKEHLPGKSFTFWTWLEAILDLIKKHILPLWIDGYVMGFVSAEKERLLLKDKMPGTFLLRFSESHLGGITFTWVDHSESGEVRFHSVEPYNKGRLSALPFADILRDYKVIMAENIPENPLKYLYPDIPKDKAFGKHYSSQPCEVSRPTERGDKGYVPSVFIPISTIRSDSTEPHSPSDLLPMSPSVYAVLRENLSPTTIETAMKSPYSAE
Method: Isothermal Titration Calorimetry
Purification of 6xHis-tagged proteins for ITC experiments was carried out by affinity chromatography on His-Bind resin. The eluting fractions were analyzed by SDS -PAGE.
Proteins were dialyzed against ITC buffer (10 mM Tris pH 8.0, 50 mM NaCl) using dialysi s tubing with a 50 kDa cut-off. ITC experiments were performed using a VP-ITC Micro Calorimeter (MicroCal). 6m was dissolved as a 100 mM stock in DMSO and diluted 1/1000 in ITC buffer (Tris pH 8.0 and 50 mM NaCl), resulting in a final concentration of 100 µM. 8k was dissolved as a 5 mM stock in ITC buffer and diluted 1/25 in ITC buffer with DMSO, resulting in a final concentration of 200 µM 8k. DMSO was added to a final concentration of 2% (v/v). To avoid errors caused by the detection of dilution heat, 0.1 % (v/v) DMSO for 6m or 2% (v/v) DMSO for 8k experiments was added to the buffers containing the proteins and to the reference buffer. Proteins were degassed before the experiments using a ThermoVac sample degassing station. The following conditions were used for ITC experiments: 10 µM STAT4 protein for 6m or 20 µM STAT4 protein for 8k experiments, 100 µM 6m or 200 µM 8k, 28 injections with 10 µL single injection volume, 250 s initial delay, 500 s spacing between injections, 250 µcal/s reference power, 300 rpm stirring at 25 °C for 6m or 220 rpm stirring at 25 °C for 8k. […]

STAT4 Arg598Ala = biological target: T2, STAT4 Arg598Ala (Homo sapiens, UniProt Q14765, R598A); assay: Isothermal titration calorimetry (ITC), STAT4 Arg598Ala; settings: n = 4
T2 construct: 6xHis; made in house
T2 sequence (Q14765 1-748 R598A): T1 sequence (Q14765 1-748 K580A) with A580K, R598A

STAT3 = STAT3 (Homo sapiens, UniProt P40763); assay: CETSA of STAT3 in lysates from NK-92 cells; set-up: endogenous in cells; host or cells: NK-92 (DSMZ) lysate
Sequence of STAT3 (P40763 whole entry): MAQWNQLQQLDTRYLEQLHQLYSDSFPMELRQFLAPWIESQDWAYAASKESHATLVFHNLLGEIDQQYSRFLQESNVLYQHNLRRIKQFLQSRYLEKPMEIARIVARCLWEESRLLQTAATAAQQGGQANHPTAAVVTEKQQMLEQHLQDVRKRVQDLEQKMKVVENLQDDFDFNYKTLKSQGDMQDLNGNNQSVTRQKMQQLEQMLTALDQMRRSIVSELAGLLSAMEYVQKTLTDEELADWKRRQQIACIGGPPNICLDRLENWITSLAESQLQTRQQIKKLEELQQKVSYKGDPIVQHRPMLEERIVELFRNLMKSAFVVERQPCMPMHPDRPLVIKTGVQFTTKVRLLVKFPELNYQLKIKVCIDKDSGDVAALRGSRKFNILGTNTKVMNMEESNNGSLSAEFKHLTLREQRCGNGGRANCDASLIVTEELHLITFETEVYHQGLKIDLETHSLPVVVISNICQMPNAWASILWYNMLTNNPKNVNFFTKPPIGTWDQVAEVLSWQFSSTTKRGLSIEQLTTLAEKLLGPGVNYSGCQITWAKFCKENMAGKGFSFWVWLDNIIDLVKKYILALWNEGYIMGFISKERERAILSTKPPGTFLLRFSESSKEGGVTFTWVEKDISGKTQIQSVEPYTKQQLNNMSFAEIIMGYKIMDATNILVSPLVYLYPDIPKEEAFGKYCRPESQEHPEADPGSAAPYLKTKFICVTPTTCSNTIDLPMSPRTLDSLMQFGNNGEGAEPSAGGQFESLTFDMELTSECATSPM
Method: NK-92 cells (DSMZ) were cultured in -MEM containing 12.5% fetal bovine serum (FBS), 12.5% horse serum, 2 mM L-glutamine, penicillin/streptomycin and 50 U/ml IL -2.
NK-92 cells were treated with test compound or DMSO in 1.5 ml medium in 12 -well plates (Corning) for 2 h (final DMSO concentration 0.2%), in the presence of 50 ng/ml IL -12 (PeproTech). […] Cells were harvested by washing twice with ice -cold TBS, followed by resuspension in TBS supplemented with protease/phosphatase inhibitors (100 ng/ml aprotinin, 1 mM Na3VO4, 10 mM NaF, 1 mM PMSF). […] Cells were lysed using three freeze -thaw cycles with liquid nitrogen and lysates cleared by centrif ugation.
NK-92 cell lysates were prepared for CETSA experiments by washing cultured cells once with TBS and resuspending in TBS supplemented with Halt Protease In hibitor Cocktail, EDTA-free (Fisher Scientific) at 3 x 10^6 cells per 100 µl. Cells were lysed using three freeze -thaw cycles with liquid nitrogen and lysates cleared by centrifugation.
CETSA experiments were performed essentially using the published protocol. […] Briefly, NK-92 cell lysates were incubated with test compound or DMSO for 15 min at room temperature (final DMSO concentration 2%). During this time, the treated lysate was divided into 10x 50 µl aliquots in 0.2 ml reaction tubes. Samples were then heated to the designated temperatures in a Veriti Pro Thermocycler (Thermo Fishe r Scientific) for 3 min, followed by 3 min incubation at room temperature, and then placed on ice. […] The soluble fractions were subsequently analyzed by Western blotting.
The components of cell lysates from treated cells, or heat-treated lysates from CETSA, were separated by SDS-PAGE (10%), transferred to nitrocellulose membrane (Bio-Rad) and detected using monoclonal rabbit primary antibodies (Cell Signaling), -rabbit-HRP secondary antibody (Dako) and Western Lightning Plus chemiluminescence reagent (Perkin Elmer).
Bands were visualized using an ImageQuant system (GE Healthcare) and quantitated using ImageJ software (NIH).

Row | ΔT agg of STAT3 (STAT3; CETSA, NK-92 cell lysates, versus DMSO control) [°C] | T agg of STAT3 (STAT3; CETSA, NK-92 cell lysates, DMSO control 51.0 ± 0.3 °C, n = 3) [°C] | stabilization of STAT3 against thermal degradation (STAT3; lysates from NK-92 cells, Ac-pYLPQTV-NH2 at 100 µM) | SMILES | binding to STAT4 point mutant Lys580Ala (ITC) (STAT4 Lys580Ala) | binding to STAT4 point mutant Arg598Ala (ITC) (STAT4 Arg598Ala)
1 |  |  |  | O=P(O)(O)Oc1ccc(-c2ccc3ccccc3c2)cc1F [Compound 6m] | too weak for reliable quantification | no heat release
2 | −0.4 | 50.6 ± 0.2 | does not stabilize | Cc1cc(-c2ccc(C(F)(F)P(=O)(O)O)c(F)c2)cs1 [Compound 8k] |  | 
